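How tested: cells in 96-well plates exposed to compound for 48 hours at five concentrations. The concentration for full growth arrest is given as TGI.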
Tests used:
Experiment in all cases: DTP human tumour cell line panel, 48 h
SR leukemia = system: SR leukemia
SNB-19 CNS = system: SNB-19 CNS
NCI-H226 lung = system: NCI-H226 lung
HOP-92 NSCLC = system: HOP-92 NSCLC
NCI-H522 lung = system: NCI-H522 lung
A549 NSCLC = system: A549 NSCLC
SN12C renal = system: SN12C renal
CCRF-CEM leukemia = system: CCRF-CEM leukemia
NCI-H460 lung = system: NCI-H460 lung
NCI-H23 lung = system: NCI-H23 lung
MALME-3M melanoma = system: MALME-3M melanoma
RPMI-8226 leukemia = system: RPMI-8226 leukemia
EKVX NSCLC = system: EKVX NSCLC
PC-3 prostate = system: PC-3 prostate
MOLT-4 leukemia = system: MOLT-4 leukemia
IGROV1 ovarian = system: IGROV1 ovarian
MDA-N = system: MDA-N
BT-549 breast = system: BT-549 breast
HS 578T breast = system: HS 578T breast
HCT-15 colon = system: HCT-15 colon
MDA-MB-435 = system: MDA-MB-435
RXF 393 renal = system: RXF 393 renal
MCF7 breast = system: MCF7 breast
HCC-2998 colon = system: HCC-2998 colon
A498 renal = system: A498 renal
SK-MEL-28 melanoma = system: SK-MEL-28 melanoma
SK-MEL-5 melanoma = system: SK-MEL-5 melanoma
SF-539 CNS = system: SF-539 CNS
OVCAR-3 ovarian = system: OVCAR-3 ovarian
SF-295 CNS = system: SF-295 CNS
DU-145 prostate = system: DU-145 prostate
U251 CNS = system: U251 CNS
UO-31 renal = system: UO-31 renal
KM12 colon = system: KM12 colon
SK-MEL-2 melanoma = system: SK-MEL-2 melanoma
CAKI-1 renal = system: CAKI-1 renal
ACHN renal = system: ACHN renal
T-47D breast = system: T-47D breast
SW-620 colon = system: SW-620 colon
SF-268 CNS = system: SF-268 CNS
HOP-62 NSCLC = system: HOP-62 NSCLC
MDA-MB-231 breast = system: MDA-MB-231 breast
COLO 205 colon = system: COLO 205 colon
K-562 leukemia = system: K-562 leukemia
NCI/ADR-RES ovarian = system: NCI/ADR-RES ovarian
OVCAR-8 ovarian = system: OVCAR-8 ovarian
OVCAR-4 ovarian = system: OVCAR-4 ovarian
SK-OV-3 ovarian = system: SK-OV-3 ovarian
LOX IMVI melanoma = system: LOX IMVI melanoma
OVCAR-5 ovarian = system: OVCAR-5 ovarian
UACC-257 melanoma = system: UACC-257 melanoma
UACC-62 melanoma = system: UACC-62 melanoma
786-0 renal = system: 786-0 renal
HL-60(TB) leukemia = system: HL-60(TB) leukemia
HCT-116 colon = system: HCT-116 colon
HT29 colon = system: HT29 colon
TK-10 renal = system: TK-10 renal
SNB-75 CNS = system: SNB-75 CNS
M14 melanoma = system: M14 melanoma

With `O=C1C=CC(=O)N1n1c(Cc2ccccc2)n[nH]c1=O` the TGI (SR leukemia) was greater than 100 µM, the TGI (SNB-19 CNS) was greater than 100 µM and the TGI (NCI-H226 lung) was greater than 100 µM. It also gave a TGI (HOP-92 NSCLC) greater than 100 µM, a TGI (NCI-H522 lung) greater than 100 µM and a TGI (A549 NSCLC) greater than 100 µM. For the same compound, the TGI (SN12C renal) was greater than 100 µM, the TGI (CCRF-CEM leukemia) was greater than 100 µM and the TGI (NCI-H460 lung) was greater than 100 µM. For the same compound, the TGI (NCI-H23 lung) was greater than 100 µM, the TGI (MALME-3M melanoma) was greater than 100 µM and the TGI (RPMI-8226 leukemia) was greater than 100 µM. For the same compound, the TGI (EKVX NSCLC) was greater than 100 µM, the TGI (PC-3 prostate) was greater than 100 µM and the TGI (MOLT-4 leukemia) was greater than 100 µM. It also gave a TGI (IGROV1 ovarian) greater than 100 µM, a TGI (MDA-N) greater than 100 µM and a TGI (BT-549 breast) greater than 100 µM. For the same compound, the TGI (HS 578T breast) was greater than 100 µM, the TGI (HCT-15 colon) was greater than 100 µM and the TGI (MDA-MB-435) was greater than 100 µM. The TGI (RXF 393 renal) was greater than 100 µM, the TGI (MCF7 breast) was greater than 100 µM and the TGI (HCC-2998 colon) was greater than 100 µM. The TGI (A498 renal) was greater than 100 µM, the TGI (SK-MEL-28 melanoma) was greater than 100 µM and the TGI (SK-MEL-5 melanoma) was greater than 100 µM. It also gave a TGI (SF-539 CNS) greater than 100 µM, a TGI (OVCAR-3 ovarian) greater than 100 µM and a TGI (SF-295 CNS) greater than 100 µM. It also gave a TGI (DU-145 prostate) greater than 100 µM, a TGI (U251 CNS) greater than 100 µM and a TGI (UO-31 renal) greater than 100 µM. The TGI (KM12 colon) was greater than 100 µM, the TGI (SK-MEL-2 melanoma) was greater than 100 µM and the TGI (CAKI-1 renal) was greater than 100 µM. The TGI (ACHN renal) was greater than 100 µM, the TGI (T-47D breast) was greater than 100 µM and the TGI (SW-620 colon) was greater than 100 µM. The TGI (SF-268 CNS) was greater than 100 µM, the TGI (HOP-62 NSCLC) was greater than 100 µM and the TGI (MDA-MB-231 breast) was greater than 100 µM. It also gave a TGI (COLO 205 colon) greater than 100 µM, a TGI (K-562 leukemia) greater than 100 µM and a TGI (NCI/ADR-RES ovarian) greater than 100 µM. For the same compound, the TGI (OVCAR-8 ovarian) was greater than 100 µM, the TGI (OVCAR-4 ovarian) was greater than 100 µM and the TGI (SK-OV-3 ovarian) was greater than 100 µM. It also gave a TGI (LOX IMVI melanoma) greater than 100 µM, a TGI (OVCAR-5 ovarian) greater than 100 µM and a TGI (UACC-257 melanoma) greater than 100 µM. The TGI (UACC-62 melanoma) was greater than 100 µM, the TGI (786-0 renal) was greater than 100 µM and the TGI (HL-60(TB) leukemia) was greater than 100 µM. For the same compound, the TGI (HCT-116 colon) was greater than 100 µM, the TGI (HT29 colon) was greater than 100 µM and the TGI (TK-10 renal) was greater than 100 µM.

In the case of `O=C(O)CCc1nc2c(n1Cc1ccccc1)C(=O)c1ccccc1C2=O`, the TGI (SR leukemia) is reported as greater than 100 µM, the TGI (SNB-19 CNS) is reported as greater than 100 µM and the TGI (NCI-H226 lung) is reported as greater than 100 µM. The TGI (HOP-92 NSCLC) was 66.4 µM, the TGI (NCI-H522 lung) was 72.1 µM and the TGI (A549 NSCLC) was greater than 100 µM. The TGI (SN12C renal) was greater than 100 µM, the TGI (CCRF-CEM leukemia) was greater than 100 µM and the TGI (NCI-H460 lung) was greater than 100 µM. The TGI (NCI-H23 lung) was greater than 100 µM, the TGI (RPMI-8226 leukemia) was greater than 100 µM and the TGI (EKVX NSCLC) was greater than 100 µM. It also gave a TGI (PC-3 prostate) greater than 100 µM, a TGI (MOLT-4 leukemia) greater than 100 µM and a TGI (IGROV1 ovarian) greater than 100 µM. For the same compound, the TGI (MDA-N) was 52.8 µM, the TGI (BT-549 breast) was greater than 100 µM and the TGI (HS 578T breast) was greater than 100 µM. It also gave a TGI (HCT-15 colon) greater than 100 µM, a TGI (MDA-MB-435) of 35.8 µM and a TGI (RXF 393 renal) greater than 100 µM. It also gave a TGI (MCF7 breast) greater than 100 µM, a TGI (HCC-2998 colon) greater than 100 µM and a TGI (A498 renal) greater than 100 µM. For the same compound, the TGI (SK-MEL-28 melanoma) was greater than 100 µM, the TGI (SK-MEL-5 melanoma) was 43.5 µM and the TGI (SF-539 CNS) was greater than 100 µM. For the same compound, the TGI (OVCAR-3 ovarian) was 85.9 µM, the TGI (SNB-75 CNS) was greater than 100 µM and the TGI (SF-295 CNS) was greater than 100 µM. The TGI (DU-145 prostate) was greater than 100 µM, the TGI (U251 CNS) was greater than 100 µM and the TGI (UO-31 renal) was greater than 100 µM. It also gave a TGI (KM12 colon) greater than 100 µM, a TGI (SK-MEL-2 melanoma) of 78.1 µM and a TGI (CAKI-1 renal) greater than 100 µM. For the same compound, the TGI (ACHN renal) was greater than 100 µM, the TGI (T-47D breast) was greater than 100 µM and the TGI (SW-620 colon) was greater than 100 µM. The TGI (SF-268 CNS) was greater than 100 µM, the TGI (HOP-62 NSCLC) was greater than 100 µM and the TGI (MDA-MB-231 breast) was greater than 100 µM. It also gave a TGI (COLO 205 colon) greater than 100 µM, a TGI (K-562 leukemia) greater than 100 µM and a TGI (M14 melanoma) of 50.7 µM. It also gave a TGI (NCI/ADR-RES ovarian) greater than 100 µM, a TGI (OVCAR-8 ovarian) greater than 100 µM and a TGI (OVCAR-4 ovarian) greater than 100 µM. It also gave a TGI (SK-OV-3 ovarian) greater than 100 µM, a TGI (LOX IMVI melanoma) greater than 100 µM and a TGI (OVCAR-5 ovarian) greater than 100 µM. It also gave a TGI (UACC-257 melanoma) greater than 100 µM, a TGI (UACC-62 melanoma) greater than 100 µM and a TGI (786-0 renal) greater than 100 µM. It also gave a TGI (HL-60(TB) leukemia) greater than 100 µM, a TGI (HCT-116 colon) greater than 100 µM and a TGI (HT29 colon) greater than 100 µM. For the same compound, the TGI (TK-10 renal) was greater than 100 µM.

Compound `O=C(Cc1ccc(OCc2cccc(Cl)c2)cc1)NO` has a TGI (SR leukemia) of 32.5 µM, a TGI (SNB-19 CNS) greater than 100 µM and a TGI (NCI-H226 lung) of 65.4 µM. It also gave a TGI (HOP-92 NSCLC) greater than 100 µM, a TGI (NCI-H522 lung) greater than 100 µM and a TGI (A549 NSCLC) greater than 100 µM. The TGI (SN12C renal) was 76.5 µM, the TGI (CCRF-CEM leukemia) was 42.5 µM and the TGI (NCI-H460 lung) was greater than 100 µM. The TGI (NCI-H23 lung) was greater than 100 µM, the TGI (RPMI-8226 leukemia) was 50.8 µM and the TGI (EKVX NSCLC) was greater than 100 µM. It also gave a TGI (PC-3 prostate) greater than 100 µM, a TGI (MOLT-4 leukemia) of 33.1 µM and a TGI (IGROV1 ovarian) greater than 100 µM. It also gave a TGI (MDA-N) greater than 100 µM, a TGI (BT-549 breast) greater than 100 µM and a TGI (HS 578T breast) greater than 100 µM. The TGI (HCT-15 colon) was greater than 100 µM, the TGI (MDA-MB-435) was greater than 100 µM and the TGI (RXF 393 renal) was greater than 100 µM. For the same compound, the TGI (MCF7 breast) was greater than 100 µM, the TGI (HCC-2998 colon) was greater than 100 µM and the TGI (A498 renal) was 27 µM. For the same compound, the TGI (SK-MEL-28 melanoma) was greater than 100 µM, the TGI (SK-MEL-5 melanoma) was greater than 100 µM and the TGI (SF-539 CNS) was greater than 100 µM. The TGI (OVCAR-3 ovarian) was greater than 100 µM, the TGI (SNB-75 CNS) was greater than 100 µM and the TGI (SF-295 CNS) was greater than 100 µM. It also gave a TGI (DU-145 prostate) of 66.2 µM, a TGI (U251 CNS) greater than 100 µM and a TGI (UO-31 renal) of 50.4 µM. For the same compound, the TGI (KM12 colon) was greater than 100 µM, the TGI (SK-MEL-2 melanoma) was greater than 100 µM and the TGI (CAKI-1 renal) was 68.2 µM. It also gave a TGI (ACHN renal) of 86 µM, a TGI (T-47D breast) of 46.2 µM and a TGI (SW-620 colon) greater than 100 µM. It also gave a TGI (SF-268 CNS) greater than 100 µM, a TGI (HOP-62 NSCLC) greater than 100 µM and a TGI (MDA-MB-231 breast) greater than 100 µM. The TGI (COLO 205 colon) was greater than 100 µM, the TGI (K-562 leukemia) was greater than 100 µM and the TGI (M14 melanoma) was greater than 100 µM. For the same compound, the TGI (NCI/ADR-RES ovarian) was 39.3 µM, the TGI (OVCAR-8 ovarian) was 34.5 µM and the TGI (OVCAR-4 ovarian) was 82.7 µM. It also gave a TGI (SK-OV-3 ovarian) greater than 100 µM, a TGI (LOX IMVI melanoma) of 49 µM and a TGI (OVCAR-5 ovarian) greater than 100 µM. It also gave a TGI (UACC-257 melanoma) greater than 100 µM, a TGI (UACC-62 melanoma) of 55.4 µM and a TGI (786-0 renal) of 43.5 µM. It also gave a TGI (HL-60(TB) leukemia) of 44.9 µM, a TGI (HCT-116 colon) greater than 100 µM and a TGI (HT29 colon) greater than 100 µM. It also gave a TGI (TK-10 renal) greater than 100 µM.

Source: PubChem BioAssay (NCI)
